Data published in patent US20240293557A1, “PROTEOLYSIS TARGETING CHIMERAS AND METHODS OF USE THEREOF” (University of Maryland, Baltimore, priority 2021, published 2024).
Entries after “also recorded” stand apart in the source; their conditions may differ. Where two headings read alike, the source gives them in different places.

Columns and labels:
CDK9 = CDK9 (Homo sapiens (Human), UniProt P50750); assay: CDK9 activity assay (Nanosyn microfluidics mobility shift platform); assay type: biochemical
Procedure: CDK9 activity assays were performed by Nanosyn using a microfluidics mobility shift platform. In this assay, a fluorescently labeled substrate is incubated with the enzyme in the presence of test compounds. Samples are run through microfluidic chips, separating them based on differences in charge; this separates the more positive substrate from the more negative product. Enzyme activity is measured through comparison of the fluorescence from substrate and product peaks.

MOLM14 cells = assay: alamarBlue cell viability assay of MOLM14 cells; assay type: cell-based; conditions: Homo sapiens, MOLM-14
Procedure: In vitro evaluations. All 36 PROTACs are evaluated in the relevant kinase assays, and those with Ki values >10-fold weaker than the parent drug are not advanced further. […] Next, the IC50s of lead indirect MCL-1 PROTACs are determined by alamarBlue cell viability assays of four human AML cell lines.
Both MOLM14 and MV4;11 AML cell lines are relatively sensitive to VEN in vitro; harbor a FLT3-ITD mutation plus an MLL rearrangement, two relatively common poor-prognosis AML mutations (both cells lines also contain additional mutations); and are dependent on MCL-1 and BCL-2, and express relatively high levels of both. In addition, both MOLM14 and MV4;11 are sensitive to CDK9 inhibitors, PI3K/mTOR inhibitors and MEK inhibitors. […] Three repeats of each IC50 determination assay are performed for each compound against each of these four AML cell lines. Multiple compounds are tested against all four AML cell lines at once, using alamarBlue microplate assays previously described. Specifically, cell lines are treated with vehicle (negative control), PROTAC alone, parent (non-PROTAC) drug alone, VEN alone, the combination of parent drug+VEN, and the combination of PROTAC+VEN, each at multiple concentrations, and IC50s in the AML cell lines determined. […] Western blotting is conducted after treatment of cells with the active PROTACs to determine if dose-dependent reduction of MCL-1 and CDK9 or PI3K/mTOR or MEK proteins is observed.
Cell viability of MOLM14 cells was measured in presence of test compounds via alamarBlue assay. This is a colorimetric assay that uses resazurin, a reduction-oxidation indicator. After incubation, resazurin is added to the test wells. The reduced form of resazurin is resorufin, which is pink and highly fluorescent. This can be measured through absorbance or fluorescence and is proportional to the amount of living cells.

[1] = tested on: Luc-labelled MOLM14 AML cells; assay: Luc-labelled MOLM14 AML xenograft in NRG mice, venetoclax monotherapy or combinations; assay type: in vivo, mouse; conditions: MOLM14 AML-bearing NRG mice; for AML burden (fold-change total body luminescence vs d0): two 5 d treatment cycles (d1-5, d21-25), imaging d7/d14/d21, vs vehicle
Procedure: Next, these two compounds are tested at their MTD(s) in a 5 d schedule that utilized to evaluate VEN-based combinations against a luciferase (Luc)-labelled MOLM14 human AML cell line xenograft model. NRG mice are infused with Luc-labelled MOLM14 AML cells on day -10. After Xenogen quantification of baseline total body luminescence on d0, mice are placed into experimental groups balanced for AML burden. Each experiment to evaluate the two selected indirect MCL-1 PROTACs in vivo involves 10 groups of 5 MOLM14 AML-bearing mice treated with: (1) vehicle, (2-3) lead PROTACs, (4-5) corresponding parent drugs, (6) VEN, (7-8) corresponding parent drugs+VEN and (9-10) lead PROTACs+VEN. […] and VEN are administered at the same molar concentration as the novel PROTACs; additional control groups are needed if the MTDs of the two PROTACs differ. MOLM14 AML-bearing NRG mice are dosed daily PO on dl-5 and d21-25, assessed for AML burden by Xenogen imaging on d7, d14, and d21, and monitored until clinical signs dictate need for euthanasia (projected average 10 weeks). Primary response endpoints are AML response quantitation (fold-change in AML burden on d7/14/21 vs d0 for each mouse) via imaging. Comparisons of quantitative imaging results are confirmed by Kaplan-Meier survival analyses. In addition, the two selected PROTACs are similarly tested against a Luc-labelled MV4;11 cell line xenograft model. […]
Thus, the proposed sample size (5 mice/group) is expected to provide sufficient power for statistical analyses (at p<0.05 level; α=0.05, β=0.1), which is estimated with the standard deviation of AML burden over time monitored and the expected drug efficacy differences. […] AML burden is quantified using log transformed ratio of luminescence at d7/14/21 vs d0 for each mouse (fold-change); groups are compared using the appropriate parametric (ANOVA; t-test, etc) or non-parametric alternative as necessary (Wilcoxon rank sum, Kruskal-Wallis). […]
Two of the parent drug candidates are synthesized but the syntheses are published and short. […] The indirect MCL-1 PROTAC candidates are evaluated in the kinase assays as they are synthesized. […] On d0, after Xenogen quantification of baseline total body luminescence (AML burden), groups of 5 AML-bearing mice were treated on days 1-5, per a previously established MTD POx5d schedule, with VEN (150 mg/kg/d POx5), as monotherapy or co-administered with SOR (30 mg/kg/d POx5), ART (50 mg/kg/d POx5), and/or ASP (2001U/kg IP single dose). […] On d7, d14 and d21, each mouse was Xenogen imaged for total body luminescence, fold-change AML burden from d0 was calculated for each mouse, and mean (+/−SD) fold-change for each experimental group plotted. […]

[2] = tested on: MOLM14 MCL1 OE cloned cell lines; assay: 48 h alamarBlue cell viability assay of MOLM14 MCL1 OE cloned cell lines; assay type: cell-based, human; conditions: MOLM14 MCL1 OE cloned cell lines vs control cell lines
From the text: Method: OLM14 AML cell were lentivirally transduced to overexpress MCL1. […] MOLM14 AML cells were transduced with lentiviral expression vector (LV) pWCC43 backbone containing EF1a—driven GFP and Ubiquitin (Ub)-driven MCL1, or control empty LV without MCL1, or control LV containing Luc in place of MCL1, and then single-cell subcloned.

[3] = MOLM14, 48 hr, read-out: Cell Viability (MOLM14 IC50-nM) 48 hr
[4] = MOLM14, 72 hr, read-out: Cell Viability (MOLM14 IC50-nM) 72 hr

Sequence of CDK9 (P50750 whole entry): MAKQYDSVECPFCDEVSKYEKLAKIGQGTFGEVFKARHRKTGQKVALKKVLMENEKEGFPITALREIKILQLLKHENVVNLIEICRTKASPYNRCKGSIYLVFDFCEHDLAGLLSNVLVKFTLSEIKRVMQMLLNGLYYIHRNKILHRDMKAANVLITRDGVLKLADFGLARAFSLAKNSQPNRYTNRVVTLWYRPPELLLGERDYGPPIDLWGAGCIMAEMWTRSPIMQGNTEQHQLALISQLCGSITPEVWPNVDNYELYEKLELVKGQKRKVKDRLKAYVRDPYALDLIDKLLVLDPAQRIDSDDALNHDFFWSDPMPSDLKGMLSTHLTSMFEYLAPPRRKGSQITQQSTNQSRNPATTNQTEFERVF
Sequence of CDK9 (O60563 whole entry partner): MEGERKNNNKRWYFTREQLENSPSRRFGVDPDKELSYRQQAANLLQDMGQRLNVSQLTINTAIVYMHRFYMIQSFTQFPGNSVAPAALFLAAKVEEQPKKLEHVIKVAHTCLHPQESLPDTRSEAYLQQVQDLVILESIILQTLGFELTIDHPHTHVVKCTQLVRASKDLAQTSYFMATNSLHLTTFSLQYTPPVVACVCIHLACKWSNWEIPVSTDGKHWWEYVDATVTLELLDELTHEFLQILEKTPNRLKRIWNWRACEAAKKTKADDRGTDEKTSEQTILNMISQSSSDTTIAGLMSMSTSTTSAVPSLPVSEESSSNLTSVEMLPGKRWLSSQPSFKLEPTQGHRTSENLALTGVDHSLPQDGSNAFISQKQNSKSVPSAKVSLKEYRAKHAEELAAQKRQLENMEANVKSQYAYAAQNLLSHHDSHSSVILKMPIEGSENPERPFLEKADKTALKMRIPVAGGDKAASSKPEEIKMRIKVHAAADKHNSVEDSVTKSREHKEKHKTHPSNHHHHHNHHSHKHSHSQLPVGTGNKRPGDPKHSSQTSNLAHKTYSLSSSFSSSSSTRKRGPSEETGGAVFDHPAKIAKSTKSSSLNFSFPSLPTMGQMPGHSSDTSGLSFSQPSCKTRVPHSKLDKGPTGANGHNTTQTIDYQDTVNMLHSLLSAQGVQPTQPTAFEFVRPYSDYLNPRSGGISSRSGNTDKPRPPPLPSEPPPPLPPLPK

Molecule | IC50 (CDK9) | IC50 (MOLM14 cells; [3]) | IC50 (MOLM14 cells; [4]) | AML burden (fold-change total body luminescence vs d0) [1] | Kaplan-Meier survival ([1]; two 5 d treatment cycles, survival to d84, vs vehicle or monotherapy) | Sensitivity of MCL-1 overexpressing MOLM14 clones compared to control cell lines [2]
O=C(COc1cccc2c1C(=O)N(C1CCC(=O)NC1=O)C2=O)NCCOCCNC(=O)CN1CCC(NC(=O)c2n[nH]cc2NC(=O)c2c(Cl)cccc2Cl)CC1 (centres unmarked) [CG-3-066] | 3.32 nM | 1970 nM | 1690 nM |  |  | 
O=C(COc1cccc2c1C(=O)N(C1CCC(=O)NC1=O)C2=O)NCCC(=O)N1CCC(NC(=O)c2n[nH]cc2NC(=O)c2c(Cl)cccc2Cl)CC1 (centres unmarked) [AMC-3-104] | 2.82 nM |  |  |  |  | 
CC1(C)CCC(CN2CCN(c3ccc(C(=O)NS(=O)(=O)c4ccc(NCC5CCOCC5)c([N+](=O)[O-])c4)c(Oc4cnc5[nH]ccc5c4)c3)CC2)=C(c2ccc(Cl)cc2)C1 [VEN, venetoclax] |  |  |  | no detectable effect; also recorded: minimal activity | no detectable effect | more resistant
CNC(=O)c1cc(Oc2ccc(NC(=O)Nc3ccc(Cl)c(C(F)(F)F)c3)cc2)ccn1 [SOR, Sorafenib] |  |  |  | reduced AML burden only moderately; also recorded: significant difference in AML burden only at d7 and d14 |  | 
O=C(COc1cccc2c1C(=O)N(C1CCC(=O)NC1=O)C2=O)NCCNC(=O)CN1CCC(NC(=O)c2n[nH]cc2NC(=O)c2c(Cl)cccc2Cl)CC1 (centres unmarked) [AMC-3-097] | 3.96 nM |  |  |  |  | 
O=C1CCC(N2C(=O)c3cccc(OCC(=O)N4CCC(NC(=O)CN5CCC(NC(=O)c6n[nH]cc6NC(=O)c6c(Cl)cccc6Cl)CC5)CC4)c3C2=O)C(=O)N1 (centres unmarked) [AMC-3-106] | 3.04 nM | 6070 nM | 8170 nM |  |  | 
O=C(COc1cccc2c1C(=O)N(C1CCC(=O)NC1=O)C2=O)NCCCCCCC(=O)N1CCC(NC(=O)c2n[nH]cc2NC(=O)c2c(Cl)cccc2Cl)CC1 (centres unmarked) [CG-3-071] | 2.85 nM | 1710 nM | 1910 nM |  |  | 
O=C(NC1CCNCC1)c1n[nH]cc1NC(=O)c1c(Cl)cccc1Cl [AMC-3-098, N-(4-Piperidinyl)-4-(2,6-dichlorobenzoylamino)-1H-pyrazole-3-carboxamide, reference compound] |  | 178 nM | 460 nM |  |  | 
CC(C)(C)OC(=O)N1CCC(NC(=O)c2n[nH]cc2NC(=O)c2c(Cl)cccc2Cl)CC1 [AMC-3-095] | 11.3 nM | 1680 nM | 2010 nM |  |  | 
O=C1CCC(N2C(=O)c3cccc(OCC(=O)N4CCC(C(=O)N5CCC(NC(=O)c6n[nH]cc6NC(=O)c6c(Cl)cccc6Cl)CC5)CC4)c3C2=O)C(=O)N1 (centres unmarked) [SF-8-140] | 1.66 nM | 3000 nM | 1820 nM |  |  | 
O=C(CNC(=O)COc1cccc2c1C(=O)N(C1CCC(=O)NC1=O)C2=O)NCCCCCCC(=O)N1CCC(NC(=O)c2n[nH]cc2NC(=O)c2c(Cl)cccc2Cl)CC1 (centres unmarked) [SF-8-141] | 4.49 nM |  |  |  |  | 
O=C(COc1cccc2c1C(=O)N(C1CCC(=O)NC1=O)C2=O)NCCOCCOCCNC(=O)CN1CCC(NC(=O)c2n[nH]cc2NC(=O)c2c(Cl)cccc2Cl)CC1 (centres unmarked) [CG-3-067] | 3.89 nM | 4320 nM | 7150 nM |  |  | 
PEGylated L-asparaginase |  |  |  | minimal activity |  | 
Cc1c(-c2c(-c3ccc(F)o3)sc3ncnc(O[C@H](Cc4ccccc4OCc4ccnn4CC(F)(F)F)C(=O)O)c23)ccc(OCCN2CCN(C)CC2)c1Cl [S63845] |  |  |  |  |  | reduced sensitivity
CC(C)(C)OC(=O)CN1CCC(NC(=O)c2n[nH]cc2NC(=O)c2c(Cl)cccc2Cl)CC1 [AMC-3-086] | 11 nM | 1560 nM | 1590 nM |  |  | 
